Source: patent publication US11466024B2, “Bicylic compound acting as an inhibitor” (CHIA TAI TIANQING PHARMACEUTICAL GROUP CO., LTD., priority 2017, dated 2022)

Legend:
[1] = target: T1, RORγ (Homo sapiens, UniProt P51449); assay: In vitro test for inhibitory activity on RORγ: luciferase reporter cells expressing chimeric Gal4-RORγ receptor; assay type: cell-based; details: Gal4 hybrid receptor luciferase reporter, HEK293, 24 hours incubation
T1 sequence (P51449 97-518): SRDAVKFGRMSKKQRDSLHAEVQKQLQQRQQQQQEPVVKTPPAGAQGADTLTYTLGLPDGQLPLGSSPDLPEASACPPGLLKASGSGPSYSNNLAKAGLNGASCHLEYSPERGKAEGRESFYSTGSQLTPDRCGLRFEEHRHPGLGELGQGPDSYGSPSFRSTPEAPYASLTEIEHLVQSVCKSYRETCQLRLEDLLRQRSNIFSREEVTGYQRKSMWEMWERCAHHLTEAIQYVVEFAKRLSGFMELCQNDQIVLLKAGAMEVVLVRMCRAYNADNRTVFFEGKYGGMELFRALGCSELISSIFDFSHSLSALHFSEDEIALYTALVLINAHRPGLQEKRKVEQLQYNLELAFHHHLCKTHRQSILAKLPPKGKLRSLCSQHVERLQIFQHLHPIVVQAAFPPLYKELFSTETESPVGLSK
Method: Reporter cells: Reporter cells expressing a chimeric RORγ receptor were used in this experiment. The chimeric RORγ receptor was a RORγ receptor formed by replacing the N-terminal DNA-binding domain of the natural RORγ protein with the DNA-binding domain of the yeast Gal4 protein. The luciferase reporter gene was located at the downstream of the Gal4 activating sequence (UAS).
Step 1: Reporter cells were prepared into a cell suspension using INDIGO's Cell Recovery Medium (CRM, containing 5% fetal bovine serum treated by activated carbon). The cell suspension was dispensed into a white 96-well culture plate in a volume of 100 μl/well.
Step 2: Eight concentration gradients were set for each test compound, and the test was conducted twice at each concentration. Prior to the experiment, the main stock solution of the test compound was serially diluted with DMSO, so as to formulate solutions with “1000×-concentration” relative to each of the final test concentrations. Subsequently, the compound was further diluted with the cell recovery medium (CRM, containing 5% fetal bovine serum treated by activated carbon), so as to formulate test working solutions with “2×-concentration”. As per a volume of 100 μl/well, the test working solutions were respectively added to the test wells in which the reporter cells were added in advance, so as to obtain the desired final test concentrations. The residual concentrations of DMSO in all test wells were 0.1%. The test plate was incubated in a cell incubator for 24 hours. Conditions of the incubator were set as follows: temperature: 37° C., 5% CO2, humidity: ˜85%.
Step 3: After 24 hours of incubation, the liquid in the culture plate was discarded, 100 μl of luciferase detection reagent was added to each test well, and then, the fluorescence intensity (Relative Luminescence Units, RLUs) in each well was read.
In this test, the reference compound ursolic acid was used as an internal standard of a positive compound to verify the inhibitory effect of the test compound on RORγ in reporter cells of a specific batch. The tests for the reference compound and the test compound were performed simultaneously, and the reference compound and the test compound were thus exposed to the same test reagent and environment. The reference compound group containing 0.1% DMSO as solvent was used as an internal standard of a positive compound, so as to determine the effect of the solvent DMSO on the test results and calculate the percentage reduction in RORγ activity.
The test data was managed and archived by Microsoft Excel, and mean±standard deviation (SD) of RLU, fold of reduction, inhibition rate, coefficient of variation (% CV) and Z factor were calculated. Coefficient of variation (% CV): 100×(SD/Ave. RLU); Fold of reduction for inverse agonist: [Ave. […]

[2] = test system: imiquimod-induced psoriasis; assay: In vivo pharmacodynamic study in imiquimod (IMQ)-induced psoriasis model in mice; set-up: species or system C57BL/6 mice; details: for Clinical scores (Mean ± SEM, n = 8): 75 mg/kg
Method: 6- to 8-week old female C57BL/6 mice were selected, depilated on the backs, and sensitized two days later except for the sham operation group. On the day of sensitization, the mice were randomly divided into the following 6 groups (8 mice per group). Group I was a sham operation group; Group II was a vehicle control group and PBS was administered; Group III was a positive control group and 5 mg/kg methotrexate was administered; Groups IV, V and VI were ip treatment group, ig treatment group, and topical treatment group of the compound of Example 1, and 75 mg/kg of the compound of Example 1 was administered via intraperitoneal injection, intragastric administration, and dorsal application, respectively. Administration was started on the day of sensitization, once daily for Group III and twice daily for Groups IV to VI. On the day of sensitization, the mice in Groups II to VI were given 60 to 80 mg of imiquimod cream (5%) on the dorsal skin for 4 consecutive days. (Please refer to Bouchaud, G., et al., Epidermal IL-15Ralpha acts as an endogenous antagonist of psoriasiform inflammation in mouse and man. J. Exp. Med., 2013. 210(10): p. 2105-17.)
The mice were weighed daily from the day of sensitization, and the skin scales, induration, and erythema were observed and scored according to a four-grade scoring method: 0 point, no disease; 1 point, mild; 2 points, moderate; 3 points, severe; and 4 points, very severe. (Please refer to Qin, S., et al., Endogenous n-3 polyunsaturated fatty acids protect against imiquimod-induced psoriasis-like inflammation via the IL-17/IL-23 axis. Mol Med Rep, 2014. 9(6): p. 2097-104.)

SMILES: CCS(=O)(=O)c1ccc(CNC(=O)c2cc3c(s2)C(C(C)C)N(C[C@H]2CC[C@H](C(F)(F)F)CC2)C3)nc1 (single isomer, unassigned) [Example 1]
- EC50 ([1]; Specific value of the concentration required for 50% inhibition (EC50) of RORγ): 15.8 nM
- EC50 ([1]; Value of the concentration required for 50% Inhibition (EC50) of RORγ): < 100 nM
- effect on reducing the clinical scores compared with 5 mg/kg of methotrexate ([2]; 75 mg/kg by intraperitoneal injection, intragastric administration and dorsal application, FIG. 5): equivalent
- effect on the clinical scores (skin scales, induration) ([2]; 75 mg/kg by intraperitoneal injection, intragastric administration and dorsal application, p<0.01, FIG. 5): reduce the clinical scores significantly
- Clinical scores (Mean ± SEM, n = 8) ([2]; ig, Day 1): 0 ± 0
- Clinical scores (Mean ± SEM, n = 8) ([2]; ig, Day 2): 0.31 ± 0.13
- Clinical scores (Mean ± SEM, n = 8) ([2]; ig, Day 3): 0.50 ± 0.19
- Clinical scores (Mean ± SEM, n = 8) ([2]; ig, Day 4): 1.29 ± 0.21
- Clinical scores (Mean ± SEM, n = 8) ([2]; ig, Day 5): 1.64 ± 0.18
- Clinical scores (Mean ± SEM, n = 8) ([2]; ip, Day 1): 0 ± 0
- Clinical scores (Mean ± SEM, n = 8) ([2]; ip, Day 2): 0.25 ± 0.13
- Clinical scores (Mean ± SEM, n = 8) ([2]; ip, Day 3): 0.50 ± 0.16
- Clinical scores (Mean ± SEM, n = 8) ([2]; ip, Day 4): 1.25 ± 0.19
- Clinical scores (Mean ± SEM, n = 8) ([2]; ip, Day 5): 1.81 ± 0.25
- Clinical scores (Mean ± SEM, n = 8) ([2]; topical, Day 1): 0 ± 0
- Clinical scores (Mean ± SEM, n = 8) ([2]; topical, Day 2): 0.25 ± 0.13
- Clinical scores (Mean ± SEM, n = 8) ([2]; topical, Day 3): 0.44 ± 0.15
- Clinical scores (Mean ± SEM, n = 8) ([2]; topical, Day 4): 0.94 ± 0.24
- Clinical scores (Mean ± SEM, n = 8) ([2]; topical, Day 5): 1.43 ± 0.20
